ChEMBL document CHEMBL1201862, “PubChem BioAssay data set” (2004)
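Compound exposure: 48 hours, 5 concentrations, 96-well plates. The concentration for 50% growth inhibition is given as GI50.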 Calls of active or inactive are those of the source. Cut-off read from the data, not from the text of the source: active = GI50 up to about 1.1 µM and inactive = higher.

Legend:
Assay in all cases: growth of human tumour cells (NCI), 48 h
786-0 = test system: 786-0
A549 = test system: A549
ACHN = test system: ACHN
BT-549 = test system: BT-549
CAKI-1 = test system: CAKI-1
CCRF-CEM = test system: CCRF-CEM
COLO 205 = test system: COLO 205
DU-145 = test system: DU-145
EKVX = test system: EKVX
HCC 2998 = test system: HCC 2998
HCT-116 = test system: HCT-116
HCT-15 = test system: HCT-15
HL-60 = test system: HL-60
HOP-62 = test system: HOP-62
HT-29 = test system: HT-29
Hs-578T = test system: Hs-578T
IGROV-1 = test system: IGROV-1
K562 = test system: K562
KM12 = test system: KM12
LOX IMVI = test system: LOX IMVI
M14 = test system: M14
MCF7 = test system: MCF7
MDA-MB-231 = test system: MDA-MB-231
MDA-MB-435 = test system: MDA-MB-435
MDA-N = test system: MDA-N
MOLT-4 = test system: MOLT-4
Malme-3M = test system: Malme-3M
NCI-H226 = test system: NCI-H226
NCI-H23 = test system: NCI-H23
NCI-H460 = test system: NCI-H460
NCI-H522 = test system: NCI-H522
NCI/ADR-RES = test system: NCI/ADR-RES
OVCAR-3 = test system: OVCAR-3
OVCAR-4 = test system: OVCAR-4
OVCAR-5 = test system: OVCAR-5
OVCAR-8 = test system: OVCAR-8
PC-3 = test system: PC-3
RPMI-8226 = test system: RPMI-8226
RXF 393 = test system: RXF 393
SF-268 = test system: SF-268
SF-295 = test system: SF-295
SF-539 = test system: SF-539
SK-MEL-28 = test system: SK-MEL-28
SK-MEL-2 = test system: SK-MEL-2
SK-MEL-5 = test system: SK-MEL-5
SK-OV-3 = test system: SK-OV-3
SN12C = test system: SN12C
SNB-19 = test system: SNB-19
SNB-75 = test system: SNB-75
SR = test system: SR
SW-620 = test system: SW-620
T47D = test system: T47D
TK-10 = test system: TK-10
U-251 = test system: U-251
UACC-257 = test system: UACC-257
UACC-62 = test system: UACC-62
UO-31 = test system: UO-31
A498 = test system: A498
HOP-92 = test system: HOP-92

## CC(C)C1CC[C@H](C)C[C@@H]1OC(=O)C(C(=O)O[C@H]1C[C@@H](C)CCC1C(C)C)C(O)[C@@H]1OC(C)(C)O[C@H]1C1COC(C)(C)O1 (some centres not stated)
786-0
  GI50: 16.6 µM (inactive)
A549
  GI50: 22.3 µM (inactive)
ACHN
  GI50: 16.6 µM (inactive)
BT-549
  GI50: 19 µM (inactive)
CAKI-1
  GI50: 16.3 µM (inactive)
CCRF-CEM
  GI50: 15 µM (inactive)
COLO 205
  GI50: 13.6 µM (inactive)
DU-145
  GI50: 18.8 µM (inactive)
EKVX
  GI50: 20.8 µM (inactive)
HCC 2998
  GI50: 13.8 µM (inactive)
HCT-116
  GI50: 11.7 µM (inactive)
HCT-15
  GI50: 20.7 µM
HL-60
  GI50: 16.7 µM (inactive)
HOP-62
  GI50: 19.7 µM (inactive)
HT-29
  GI50: 13.4 µM (inactive)
Hs-578T
  GI50: 15 µM (inactive)
IGROV-1
  GI50: 16.8 µM (inactive)
K562
  GI50: 11.1 µM (inactive)
KM12
  GI50: 16.6 µM (inactive)
LOX IMVI
  GI50: 16.8 µM (inactive)
M14
  GI50: 19 µM (inactive)
MCF7
  GI50: 8.13 µM (inactive)
MDA-MB-231
  GI50: 17 µM (inactive)
MDA-MB-435
  GI50: 16.6 µM (inactive)
MDA-N
  GI50: 18.5 µM (inactive)
MOLT-4
  GI50: 10.7 µM (inactive)
Malme-3M
  GI50: 17.1 µM (inactive)
NCI-H226
  GI50: 23.8 µM (inactive)
NCI-H23
  GI50: 13.4 µM (inactive)
NCI-H460
  GI50: 15 µM (inactive)
NCI-H522
  GI50: 1.58 µM (inactive)
NCI/ADR-RES
  GI50: 20.4 µM (inactive)
OVCAR-3
  GI50: 19.9 µM (inactive)
OVCAR-4
  GI50: 26 µM (inactive)
OVCAR-5
  GI50: 17.3 µM (inactive)
OVCAR-8
  GI50: 21 µM (inactive)
PC-3
  GI50: > 10 µM (inactive)
RPMI-8226
  GI50: 16.7 µM (inactive)
RXF 393
  GI50: 14.7 µM (inactive)
SF-268
  GI50: 19.9 µM (inactive)
SF-295
  GI50: 16.1 µM (inactive)
SF-539
  GI50: 26.8 µM (inactive)
SK-MEL-28
  GI50: 18.3 µM (inactive)
SK-MEL-2
  GI50: 19.4 µM (inactive)
SK-MEL-5
  GI50: 15.8 µM (inactive)
SK-OV-3
  GI50: 26.8 µM (inactive)
SN12C
  GI50: 16.5 µM (inactive)
SNB-19
  GI50: 16.3 µM (inactive)
SNB-75
  GI50: 15.7 µM (inactive)
SR
  GI50: 9.62 µM (inactive)
SW-620
  GI50: 14.2 µM (inactive)
T47D
  GI50: 13.1 µM (inactive)
TK-10
  GI50: 20 µM (inactive)
U-251
  GI50: 14.2 µM (inactive)
UACC-257
  GI50: 24.6 µM (inactive)
UACC-62
  GI50: 18.8 µM (inactive)
UO-31
  GI50: 17.3 µM (inactive)

## O=C(c1ccccn1)C1(N2CCCCC2)CCCCC1
786-0
  GI50: > 100 µM (inactive)
A498
  GI50: > 100 µM (inactive)
A549
  GI50: > 100 µM (inactive)
ACHN
  GI50: > 100 µM (inactive)
BT-549
  GI50: > 100 µM (inactive)
CAKI-1
  GI50: > 100 µM (inactive)
CCRF-CEM
  GI50: > 100 µM (inactive)
COLO 205
  GI50: > 100 µM (inactive)
DU-145
  GI50: > 100 µM (inactive)
EKVX
  GI50: > 100 µM (inactive)
HCC 2998
  GI50: > 100 µM (inactive)
HCT-116
  GI50: > 100 µM (inactive)
HCT-15
  GI50: > 100 µM
HL-60
  GI50: 88.3 µM (inactive)
HOP-62
  GI50: > 100 µM (inactive)
HOP-92
  GI50: 9.75 µM (inactive)
HT-29
  GI50: 78 µM (inactive)
Hs-578T
  GI50: 15.5 µM (inactive)
IGROV-1
  GI50: 87.7 µM (inactive)
K562
  GI50: > 100 µM (inactive)
KM12
  GI50: > 100 µM (inactive)
LOX IMVI
  GI50: > 100 µM (inactive)
M14
  GI50: > 100 µM (inactive)
MCF7
  GI50: > 100 µM (inactive)
MDA-MB-231
  GI50: > 100 µM (inactive)
MDA-MB-435
  GI50: > 100 µM (inactive)
MDA-N
  GI50: > 100 µM (inactive)
MOLT-4
  GI50: > 100 µM (inactive)
NCI-H226
  GI50: > 100 µM (inactive)
NCI-H23
  GI50: 91.6 µM (inactive)
NCI-H522
  GI50: 15.5 µM (inactive)
NCI/ADR-RES
  GI50: 46.5 µM (inactive)
OVCAR-3
  GI50: > 100 µM (inactive)
OVCAR-4
  GI50: > 100 µM (inactive)
OVCAR-5
  GI50: > 100 µM (inactive)
OVCAR-8
  GI50: > 100 µM (inactive)
PC-3
  GI50: > 100 µM (inactive)
RPMI-8226
  GI50: 50.2 µM (inactive)
SF-268
  GI50: 17.5 µM (inactive)
SF-295
  GI50: > 100 µM (inactive)
SF-539
  GI50: > 100 µM (inactive)
SK-MEL-28
  GI50: > 100 µM (inactive)
SK-MEL-2
  GI50: > 100 µM (inactive)
SK-MEL-5
  GI50: > 100 µM (inactive)
SK-OV-3
  GI50: > 100 µM (inactive)
SN12C
  GI50: > 100 µM (inactive)
SNB-19
  GI50: > 100 µM (inactive)
SR
  GI50: > 100 µM (inactive)
SW-620
  GI50: > 100 µM (inactive)
T47D
  GI50: 46 µM (inactive)
TK-10
  GI50: > 100 µM (inactive)
U-251
  GI50: > 100 µM (inactive)
UACC-257
  GI50: > 100 µM (inactive)
UACC-62
  GI50: > 100 µM (inactive)
UO-31
  GI50: > 100 µM (inactive)
